Assays:
NUGC-4 = test: IMAB362-induced ADCC on gastric cancer cells, also with ZA/IL-2 cultivated PBMCs; format: cell-based, human
Protocol: Specific killing was determined in luciferase assays.

[1] = system: MiaPaCa-2-LVT, Suit2-LVT and CAPAN1-LVT; test: IMAB362-mediated CDC assay, LVT cell lines; format: cell-based, human
Protocol: CDC was performed as follows.
CHO-K1 cells stably transfected with CLDN18.2 (p740) and luciferase were used as assay positive controls in each assay (FIG. 23A). […] This is most likely due to the fact that neoplastic cells over-express one or more membrane bound complement inhibitory proteins (e.g. CD46, CD55 and CD59) (Geis et al., Curr Cancer Drug Targets, 2010 10:922-931). However, if expression of these inhibitory proteins on tumor cells affect clinical outcome of an antibody therapy is still contradictory (Dzietczenia et al. Med. Oncol. 2010, 27:743-6; Weng and Levy at al., Blood 2001 98:1352-7). In addition to the endogenous cell lines, all the LVT cell lines were tested in CDC assays.

Suit2-LVT cells = test: FACS binding to Suit2-LVT cells; parameters: species or system human; conditions: 200 μg/ml antibody
Protocol: Cells were harvested with PBS/5 mM EDTA or Trypsin/EDTA from an exponentially growing culture at 70-85% confluency. Cells were counted, centrifuged for 5 min (468 g) and the pellet was resuspended in FACS buffer (2% FCS, 0.1% sodium azide in PBS) adjusting the concentration to 2×10^6/ml. 100 μl cells were plated in round bottom 96-well plates and again centrifuged (5 min, 468 g). […] Then, 200 μl FACS buffer was added to each well and plates were centrifuged (5 min, 468 g). The supernatant was removed and washing was repeated. Secondary goat anti-human antibodies (FC specific, F(ab′)2 conjugated with APC (Dianova)) were diluted (1:100) in FACS buffer and 30 μl was added to each well. Plates were incubated for 30 min at 4° C. After incubation plates were washed again two times with 200 μl FACS buffer and the pellet was finally resuspended in 100 μl FACS buffer for measurement FACS Array Bioanalyzer (BD) according to GA_018_BD FACS Array bioanalyzer.
In addition to tissue processing, it is possible that the result represents unexpected inhibiting effects of the isotype control antibody targeting CLDN6. To investigate this option, the Suit2-LVT cells were analyzed for CLDN6 expression and IMAB027 binding in FACS.

[2] = system: LVT pancreatic cancer cell lines ectopically expressing CLDN18.2; test: IF staining with IMAB362 under native conditions; format: binding, human; conditions: 8 LVT pancreatic cancer cell lines
Text: IF analysis of pancreatic cancer cell lines (FIGS. 16A, 16B, 16D and 16E), lentivirally transduced pancreas cell lines (FIGS. 16G-16L) and KATO-III gastric cancer control cells (FIGS. 16C and 16F) expressing CLDN18.2. […] DAPI was used to stain the nuclei. Exposure times are indicated in each panel. FIG. 16G: BxPC3-LVT; FIG. 16H: CAPAN1-LVT; FIG. 16I: DANG-LVT; FIG. 16J: MiaPaCa2-LVT; FIG. 16K: Patu8902-LVT; FIG. 16L: Suit2-LVT.

[3] = Phase I clinical study, single intravenous administration; format: in vivo, human
Text: IMAB362 is in early clinical testing. A phase I clinical study has been conducted in human. […] In an ongoing phase IIa clinical study IMAB362 is given repetitively.

Suit2-LVT metastases = test: Suit2-LVT metastasis model (lung, Q-PCR and IHC); format: in vivo, mice; conditions: 200 μg IMAB362, day 42
Protocol: Animals were sacrificed on day 42 post graft. […] Human cells were immunohistochemically stained in tissue sections with anti-human MHC-class I antibodies. * p<0.05 (Kruskal-Wallis test). Error bars: mean±SD.
Metastasis treatments were performed with 10-12 Hsd:Athymic Nude-Foxn1^nu mice per treatment group. […] All mice were sacrificed at the same time point, as soon as the first symptoms of metastasis disease appeared (loss of weight, weakness, shortness of breath), or the first mouse died.
All their organs were macroscopically analyzed for metastasis. […] These organs were dissected into 4 equal pieces, two (lung: upper right and lower left lobe), which were stored for genomic DNA isolation. The other two pieces were formalin fixed and stored for IHC analysis (FIG. 2).
Preparation of genomic DNA and Q-PCR strategy: Genomic DNA was extracted from lung or liver tissue.
The Q-PCR strategy is based on the amplification of human DNA present in the metastases. The relative detection level of human DNA in the mouse lung sample correlates directly with the amount and/or size of the metastases.
The Q-PCR reaction was performed with primer pair #5861 5′-[…]-3′ (SEQ ID NO: 53) and #5862 5′-[…]-3′ (SEQ ID NO: 54) specifically amplifying the alpha-satellite DNA present in human chromosome 17, but not in mouse DNA. […] The curve was used to calculate (linear regression) the amount of human metastasis DNA present in mouse lung tissue. Q-PCR reactions were performed in 50 μl final volume comprised of 20 μl (200 ng) mouse lung DNA, 25 μl Sybr Green (Qiagen), 1.6 μl sense primer (10 μM) and 1.6 μl anti-sense primer and 1.8 μl H2O.
After 35 days the first mouse (isotype control group) died. Consequently, all mice were sacrificed on day 42 and lungs and livers were taken for IHC and Q-PCR analyses.
Q-PCR analysis of human DNA in the lungs of mice was repeated at least twice in triplicate. […] The surface of the positively stained cells in the lung sections was calculated using the ImageJ Program. […]

AsPC1 = test: IMAB362-mediated ADCC assay; format: cell-based, human; conditions: at least 2 donors
CFPAC1 = test: IMAB362-mediated ADCC assay; format: cell-based, human; conditions: at least 2 donors
Panc04.03 = test: IMAB362-mediated ADCC assay; format: cell-based, human; conditions: at least 2 donors

IMAB362: chimeric IgG1 antibody directed against CLDN18.2, developed by Ganymed Pharmaceuticals AG
ADCC activity with ZA/IL-2 cultivated PBMCs (NUGC-4; PBMCs cultivated 14 days with ZA/IL-2): Strong IMAB362-dependent ADCC activity
maximum lysis rates (ADCC) (NUGC-4; up to 200 μg/ml, 24 hours, human PBMC E:T 40:1): 80-100%
CDC EC50 ([1]; BxPC3 LVT): n.m.
CDC Max. lysis ([1]; BxPC3 LVT): n.m
CDC EC50 ([1]; CAPAN1-LVT): 0.9701 µg/mL
CDC Max. lysis ([1]; CAPAN1-LVT): 79.1%
CDC EC50 ([1]; DANG-LVT): n.m.
CDC Max. lysis ([1]; DANG-LVT): n.m.
CDC EC50 ([1]; HPAC-LVT): n.m.
CDC Max. lysis ([1]; HPAC-LVT): n.m.
CDC EC50 ([1]; MiaPaCa2-LVT): 0.34 µg/mL
CDC Max. lysis ([1]; MiaPaCa2-LVT): 78.4%
CDC EC50 ([1]; Patu8902-LVT): 0.291 µg/mL
CDC Max. lysis ([1]; Patu8902-LVT): 76.7%
CDC EC50 ([1]; Suit2-LVT): n.m.
CDC Max. lysis ([1]; Suit2-LVT): n.m.
CDC EC50 ([1]; YAPC-LVT): n.m.
CDC Max. lysis ([1]; YAPC-LVT): n.m.
binding to cells in FACS (Suit2-LVT cells): strong binding
membrane staining (IF, native staining protocol) [2]: clear membrane staining
measured tumor markers ([3]; one patient, within 4 weeks after treatment): decreased significantly
tolerability in patients ([3]; single i.v. administration 33-1000 mg/m^2, observed 28 days): very well tolerated
surface of MHC-I stained cells in lung sections (IHC) (Suit2-LVT metastases; versus PBS): significant inhibition (P<0.05)
percentage of human DNA in lungs (Q-PCR) (Suit2-LVT metastases; versus PBS and isotype control): significant decrease (P<0.05)
surface of MHC-I stained cells in lung sections (IHC) (Suit2-LVT metastases; versus isotype control antibody): not significant
ADCC EC50 (AsPC1): n.m..
ADCC Max. lysis (AsPC1): n.m.
ADCC EC50 (CFPAC1): n.m.
ADCC Max. lysis (CFPAC1): 0-1.5%
ADCC EC50 (Panc04.03): n.m.
